Columns and labels:
Type in all cases: functional
CCRF-CEM = assay: Cytotoxicity against human CCRF-CEM cells assessed as cell growth at 10 uM after 24 hrs by SRB assay; conditions: read-out: Activity
Malme-3M = assay: Cytotoxicity against human MALME-3M cells assessed as cell growth at 10 uM after 24 hrs by SRB assay; conditions: read-out: Activity
[1] = Cytotoxicity against human OVCAR8 cells assessed as cell growth at 10 uM after 24 hrs by SRB assay; conditions: OVCAR-8, 24 h, read-out: Activity
NCI-H522 = assay: Cytotoxicity against human NCI-H522 cells assessed as cell growth at 10 uM after 24 hrs by SRB assay; conditions: NCI-H522, 24 h, read-out: Activity
[2] = Cytotoxicity against human DU145 cells assessed as cell growth at 10 uM after 24 hrs by SRB assay; conditions: DU-145, 24 h, read-out: Activity
[3] = Cytotoxicity against human SNB19 cells assessed as cell growth at 10 uM after 24 hrs by SRB assay; conditions: SNB-19, 24 h, read-out: Activity
[4] = Cytotoxicity against human OVCAR3 cells assessed as cell growth at 10 uM after 24 hrs by SRB assay; conditions: OVCAR-3, 24 h, read-out: Activity
[5] = Cytotoxicity against human NCI-ADR-RES cells assessed as cell growth at 10 uM after 24 hrs by SRB assay; conditions: read-out: Activity
NCI-H226 = assay: Cytotoxicity against human NCI-H226 cells assessed as cell growth at 10 uM after 24 hrs by SRB assay; conditions: NCI-H226, 24 h, read-out: Activity
A498 = assay: Cytotoxicity against human A498 cells assessed as cell growth at 10 uM after 24 hrs by SRB assay; conditions: A498, 24 h, read-out: Activity
A549 = assay: Cytotoxicity against human A549 cells assessed as cell growth at 10 uM after 24 hrs by SRB assay; conditions: A549, 24 h, read-out: Activity
[6] = Cytotoxicity against human SF295 cells assessed as cell growth at 10 uM after 24 hrs by SRB assay; conditions: SF-295, 24 h, read-out: Activity
[7] = Cytotoxicity against human PC3 cells assessed as cell growth at 10 uM after 24 hrs by SRB assay; conditions: PC-3, 24 h, read-out: Activity
NCI-H322M = assay: Cytotoxicity against human NCI-H322M cells assessed as cell growth at 10 uM after 24 hrs by SRB assay; conditions: read-out: Activity
T47D = assay: Cytotoxicity against human T47D cells assessed as cell growth at 10 uM after 24 hrs by SRB assay; conditions: read-out: Activity
MDA-MB-435 = assay: Cytotoxicity against human MDA-MB-435 cells assessed as cell growth at 10 uM after 24 hrs by SRB assay; conditions: MDA-MB-435, 24 h, read-out: Activity
[8] = Cytotoxicity against human TK10 cells assessed as cell growth at 10 uM after 24 hrs by SRB assay; conditions: TK-10, 24 h, read-out: Activity
[9] = Cytotoxicity against human HOP62 cells assessed as cell growth at 10 uM after 24 hrs by SRB assay; conditions: HOP-62, 24 h, read-out: Activity
K562 = assay: Cytotoxicity against human K562 cells assessed as cell growth at 10 uM after 24 hrs by SRB assay; conditions: K562, 24 h, read-out: Activity
MDA-MB-231 = assay: Cytotoxicity against human MDA-MB-231 cells assessed as cell growth at 10 uM after 24 hrs by SRB assay; conditions: MDA-MB-231, 24 h, read-out: Activity
KM12 = assay: Cytotoxicity against human KM12 cells assessed as cell growth at 10 uM after 24 hrs by SRB assay; conditions: KM12, 24 h, read-out: Activity
[10] = Cytotoxicity against human OVCAR4 cells assessed as cell growth at 10 uM after 24 hrs by SRB assay; conditions: OVCAR-4, 24 h, read-out: Activity
[11] = Cytotoxicity against human OVCAR5 cells assessed as cell growth at 10 uM after 24 hrs by SRB assay; conditions: OVCAR-5, 24 h, read-out: Activity
[12] = Cytotoxicity against human SF268 cells assessed as cell growth at 10 uM after 24 hrs by SRB assay; conditions: SF-268, 24 h, read-out: Activity
[13] = Cytotoxicity against human SKOV3 cells assessed as cell growth at 10 uM after 24 hrs by SRB assay; conditions: SK-OV-3, 24 h, read-out: Activity
[14] = Cytotoxicity against human NCI60 cells assessed as growth inhibition at 10 uM after 24 hrs by SRB assay; conditions: NCI60, 24 h
HT-29 = assay: Cytotoxicity against human HT-29 cells assessed as cell growth at 10 uM after 24 hrs by SRB assay; conditions: HT-29, 24 h, read-out: Activity
786-0 = assay: Cytotoxicity against human 786-0 cells assessed as cell growth at 10 uM after 24 hrs by SRB assay; conditions: 786-0, 24 h, read-out: Activity
[15] = Cytotoxicity against human IGROV1 cells assessed as cell growth at 10 uM after 24 hrs by SRB assay; conditions: IGROV-1, 24 h, read-out: Activity
[16] = Cytotoxicity against human HCC2998 cells assessed as cell growth at 10 uM after 24 hrs by SRB assay; conditions: HCC 2998, 24 h, read-out: Activity
[17] = Cytotoxicity against human Caki1 cells assessed as cell growth at 10 uM after 24 hrs by SRB assay; conditions: CAKI-1, 24 h, read-out: Activity
[18] = Cytotoxicity against human RPMI8226 cells assessed as cell growth at 10 uM after 24 hrs by SRB assay; conditions: RPMI-8226, 24 h, read-out: Activity
[19] = Cytotoxicity against human RXF393 cells assessed as cell growth at 10 uM after 24 hrs by SRB assay; conditions: RXF 393, 24 h, read-out: Activity
[20] = Cytotoxicity against human HCT116 cells assessed as cell growth at 10 uM after 24 hrs by SRB assay; conditions: HCT-116, 24 h, read-out: Activity
SN12C = assay: Cytotoxicity against human SN12C cells assessed as cell growth at 10 uM after 24 hrs by SRB assay; conditions: read-out: Activity
[21] = Cytotoxicity against human COLO205 cells assessed as cell growth at 10 uM after 24 hrs by SRB assay; conditions: COLO 205, 24 h, read-out: Activity
M14 = assay: Cytotoxicity against human M14 cells assessed as cell growth at 10 uM after 24 hrs by SRB assay; conditions: M14, 24 h, read-out: Activity
U-251 = assay: Cytotoxicity against human U251 cells assessed as cell growth at 10 uM after 24 hrs by SRB assay; conditions: U-251, 24 h, read-out: Activity
MCF7 = assay: Cytotoxicity against human MCF7 cells assessed as cell growth at 10 uM after 24 hrs by SRB assay; conditions: MCF7, 24 h, read-out: Activity

SMILES	growth at 10 µM (CCRF-CEM)	growth at 10 µM (Malme-3M)	growth at 10 µM [1]	growth at 10 µM (NCI-H522)	growth at 10 µM [2]	growth at 10 µM [3]	growth at 10 µM [4]	growth at 10 µM [5]	growth at 10 µM (NCI-H226)	growth at 10 µM (A498)	growth at 10 µM (A549)	growth at 10 µM [6]	growth at 10 µM [7]	growth at 10 µM (NCI-H322M)	growth at 10 µM (T47D)	growth at 10 µM (MDA-MB-435)	growth at 10 µM [8]	growth at 10 µM [9]	growth at 10 µM (K562)	growth at 10 µM (MDA-MB-231)	other results
O=C(Nc1cc(-c2cccnc2)nc(NCCCN2CCOCC2)n1)c1cc(Br)cc(C(F)(F)F)c1	42.8%	-7.83%	58.5%	60.2%	82.5%	69.6%	80%	56.6%	73.8%	53.7%	67.9%	-22.8%	57.7%	58.2%	46.4%	9.55%	65.4%	69.4%	8.84%	32.7%	growth at 10 µM (KM12): 80%; growth at 10 µM [10]: 62.2%; growth at 10 µM [11]: 81.4%; growth at 10 µM [12]: 60.9%; growth at 10 µM [13]: 92.3%; inhibition at 10 µM [14]: 57.2%; growth at 10 µM (HT-29): 8.99%; growth at 10 µM (786-0): 51.8%; growth at 10 µM [15]: 63.1%; growth at 10 µM [16]: 37.8%; growth at 10 µM [17]: 61.8%; growth at 10 µM [18]: 30.2%; growth at 10 µM [19]: 52.8%; growth at 10 µM [20]: 35.7%; growth at 10 µM (SN12C): 67.2%; growth at 10 µM [21]: 1.11%; growth at 10 µM (M14): -72.1%; growth at 10 µM (U-251): 33.1%; growth at 10 µM (MCF7): 38.6%
Cc1cc(Cl)ccc1C(=O)Nc1cc(-c2cccnc2)nc(NCCCN2CCOCC2)n1	101%	104%	96.9%	82.8%	97.6%	89.8%	111%	106%	77.6%	95.2%	87.7%	97.9%	107%	102%	96.4%	101%	87.2%	91.5%	113%	97.3%	growth at 10 µM (KM12): 101%; growth at 10 µM [10]: 97.7%; growth at 10 µM [11]: 94.1%; growth at 10 µM [12]: 101%; growth at 10 µM [13]: 93.7%; inhibition at 10 µM [14]: 1.46%; growth at 10 µM (HT-29): 95.7%; growth at 10 µM (786-0): 77.2%; growth at 10 µM [15]: 109%; growth at 10 µM [16]: 100%; growth at 10 µM [17]: 101%; growth at 10 µM [18]: 104%; growth at 10 µM [19]: 101%; growth at 10 µM [20]: 99.8%; growth at 10 µM (SN12C): 111%; growth at 10 µM [21]: 101%; growth at 10 µM (M14): 101%; growth at 10 µM (U-251): 96.2%; growth at 10 µM (MCF7): 90.1%
